Assay results as given in patent publication US7728012B2, “Carboxamide compounds and their use as calpain inhibitors” (Abbott GmbH & Co. KG, priority 2006, dated 2010).
pKi: −log10 of the molar value.

Columns and labels:
Assay type in all cases: biochemical
[1] = molecular target: T1, calpain-I isolated from human erythrocytes (Homo sapiens, UniProt P07384); assay: Calpain I kinetic fluorescence enzyme inhibition assay; conditions: apparent Ki from IC50 by Cheng-Prussoff; average of 2 to 4 dose-effect plots
T1 construct: calpain-I—isolated from human erythrocytes; purchased Calbiochem 208713; host or cells: human erythrocytes (tissue isolate)
T1 sequence (P07384 1-714): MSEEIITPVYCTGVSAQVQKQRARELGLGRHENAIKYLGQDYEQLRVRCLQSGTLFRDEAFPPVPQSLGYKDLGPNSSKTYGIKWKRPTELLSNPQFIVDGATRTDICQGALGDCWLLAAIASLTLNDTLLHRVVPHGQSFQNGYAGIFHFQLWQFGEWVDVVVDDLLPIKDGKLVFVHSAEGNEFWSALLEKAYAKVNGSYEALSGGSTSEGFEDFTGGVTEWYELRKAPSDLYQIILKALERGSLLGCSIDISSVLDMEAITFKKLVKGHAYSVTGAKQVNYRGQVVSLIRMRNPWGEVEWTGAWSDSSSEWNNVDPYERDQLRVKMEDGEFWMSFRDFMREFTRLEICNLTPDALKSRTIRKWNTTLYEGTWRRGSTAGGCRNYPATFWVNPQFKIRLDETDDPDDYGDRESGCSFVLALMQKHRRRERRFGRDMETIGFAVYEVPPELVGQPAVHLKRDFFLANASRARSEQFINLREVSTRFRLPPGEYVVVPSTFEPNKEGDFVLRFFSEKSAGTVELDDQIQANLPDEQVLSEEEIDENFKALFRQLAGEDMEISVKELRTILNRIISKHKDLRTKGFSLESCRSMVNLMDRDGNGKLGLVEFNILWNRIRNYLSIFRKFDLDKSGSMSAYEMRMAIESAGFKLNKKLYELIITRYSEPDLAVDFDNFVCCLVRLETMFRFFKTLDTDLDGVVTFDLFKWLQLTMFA
T1 sequence (P04632 1-268 partner): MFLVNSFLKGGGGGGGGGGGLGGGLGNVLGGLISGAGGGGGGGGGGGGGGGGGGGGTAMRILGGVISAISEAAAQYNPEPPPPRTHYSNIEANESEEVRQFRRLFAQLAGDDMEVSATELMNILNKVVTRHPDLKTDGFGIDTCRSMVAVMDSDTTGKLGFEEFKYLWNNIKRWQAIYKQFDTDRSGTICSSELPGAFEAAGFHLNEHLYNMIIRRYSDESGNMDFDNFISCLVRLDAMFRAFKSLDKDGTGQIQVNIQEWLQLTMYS

[2] = molecular target: T2, recombinant human cathepsin S (Homo sapiens, UniProt P25774); assay: Cathepsin S kinetic fluorescence enzyme inhibition assay; conditions: selectivity ratio versus calpain I
T2 construct: purchased Calbiochem 219343; host or cells: E. coli
Outline: (§1)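 Inhibition is measured at room temperature in cysteine-containing MES buffer, pH 6.0, by continuous fluorescence at 460 nm. Cathepsin S (0.5 nM) uses 20 μM Z-Val-Val-Arg-AMC; L (1 nM) and B (0.25 nM) use Z-Phe-Arg-AMC at 2 and 100 μM respectively.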

[3] = molecular target: T3, cathepsin K activated from recombinant human procathepsin K (Homo sapiens, UniProt P43235); assay: Cathepsin K kinetic fluorescence enzyme inhibition assay; conditions: selectivity ratio versus calpain I
T3 construct: purchased Calbiochem 342001; host or cells: E. coli
T3 sequence (P43235 115-329): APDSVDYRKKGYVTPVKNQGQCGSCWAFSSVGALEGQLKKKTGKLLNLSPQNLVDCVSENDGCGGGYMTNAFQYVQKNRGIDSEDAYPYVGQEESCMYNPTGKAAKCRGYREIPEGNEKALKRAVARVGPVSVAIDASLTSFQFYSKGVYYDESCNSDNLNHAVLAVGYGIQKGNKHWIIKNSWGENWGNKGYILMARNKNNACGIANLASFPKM
Description: (§2) The following solutions and buffers were employed: • HBS (for 40 ml): 800 μl M HEPES; 2.16 ml 100 mM KCl; 4.8 ml 1M NaCl; 3.59 ml 5% glucose; 60 μl μM MgSO4; 400 μl 100 mM Na pyruvate, 28.19 ml water; pH 7.2-7.5. • lysis buffer (for 20 ml): 400 μl M Tris pH 8.2; 2.74 ml 1M NaCl; 520 μl 0.5M EDTA; 2 ml 10% triton X-100; 0.8 ml (=1:25) CompletePlus (1 tablet/2 ml H2O); 200 μl 100 mM Pefabloc; 13.34 ml water, pH 8.2. • TBST (10×) (for 1 l): 100 mM Tris (12.1 g); 1.5M NaCl (87 g); 1% Tween 20 (10 g), adjusted to pH 8. I Enzyme Inhibition In Vitro: • Testing for blockade of the corresponding enzymic activities was carried out by means of kinetic fluorescence assays (excitation 390 nm, emission 460 nm). • Apparent Ki values were calculated from the experimentally determined IC50 values by the Cheng-Prussoff relation assuming a reversible competitive enzyme inhibition. The Km values of the substrates used under the assay conditions indicated above were: 90 μM (Z-Phe-Arg-AMC, cathepsin B), 10 μM (Z-Gly-Pro-Arg-AMC, cathepsin K), 2 μM (Z-Phe-Arg-AMC, cathepsin L), and 30 μM (Z-Val-Val-Arg-AMC, cathepsin S). • The indicated Ki values are averages of the inhibition constants calculated on the basis of 2 to 4 independent dose-effect plots.
(§3) The following assays were used: • 1. Calpain I: • 20 nM calpain-I—isolated from human erythrocytes (Calbiochem #208713), 100 μM Suc-Leu-Tyr-AMC (Bachem #1-1355) as substrate in buffer with 62 mM imidazole, 0.3 mM CaCl2, 0.10% CHAPS, 0.05% BSA, 1 mM DTT at pH 7.3 and room temperature. • 2. Cathepsin B: • 0.25 nM cathepsin B—isolated from human liver (Calbiochem #219362), 100 μM Z-Phe-Arg-AMC (Bachem #I-1160) as substrate 50 mM MES, 2 mM EDTA, 0.05% Brij 35, 2.5 mM L-cysteine, pH 6.0, room temperature. • 3. Cathepsin K: • 3 nM cathepsin K—activated from recombinant human procathepsin K from E. coli (Calbiochem #342001), 10 μM Z-Gly-Pro-Arg-AMC (Biomol #P-142) as substrate in 50 mM MES, 2 mM EDTA, 0.05% Brij 35, 2.5 mM L-cysteine, pH 6.0, room temperature. • 4. Cathepsin L: • 1 nM cathepsin L—isolated from human liver (Calbiochem #219402), 2 μM Z-Phe-Arg-AMC (Bachem #1-1160) as substrate in 50 mM MES, 2 mM EDTA, 0.05% Brij 35, 2.5 mM L-cysteine, pH 6.0, room temperature. • 5. Cathepsin S: • 0.5 nM recombinant human cathepsin S from E. coli (Calbiochem #219343), 20 μM Z-Val-Val-Arg-AMC (Bachem #1-1540) as substrate in 50 mM MES, 2 mM EDTA, 0.05% Brij 35, 2.5 mM L-cysteine, pH 6.0, room temperature. • The results of the in vitro determination are indicated in Table 1. The following abbreviations are used in Table 1: • The “Calpain activity” column, ++ stands for a calpain Ki (Ki(calpain)) of ≦40 nM and + means: 40 nM<Ki(Calpain)≦100 nM. • The “Sel. cat. B” column indicates the Ki(cathepsin B)/Ki(calpain) ratio. In this connection, ++ means a Ki(cathepsin B)/Ki(calpain) ratio of ≧30 and + means 10≦Ki(cathepsin B)/Ki(calpain)<30. • The “Sel. cat. K” column indicates the Ki(cathepsin K)/Ki(calpain) ratio. In this connection, ++ means a Ki(cathepsin K)/Ki(calpain) ratio of ≧30 and + means 10≦Ki(cathepsin K)/Ki(calpain)<30. • The “Sel. cat. L” column indicates the Ki(cathepsin L)/Ki(calpain) ratio. In this connection, ++ means a Ki(cathepsin L)/Ki(calpain) ratio of ≧50 and + means 30≦Ki(cathepsin L)/Ki(calpain)<50. • The “Sel. cat. S” column indicates the Ki(cathepsin S)/Ki(calpain) ratio. In this connection, ++ means a Ki(cathepsin S)/Ki(calpain) ratio of ≧100 and + means 50≦Ki(cathepsin S)/Ki(calpain)<100.

[4] = molecular target: T4, cathepsin L isolated from human liver (Homo sapiens, UniProt P07711); assay: Cathepsin L kinetic fluorescence enzyme inhibition assay; conditions: selectivity ratio versus calpain I
T4 construct: cathepsin L—isolated from human liver; purchased Calbiochem 219402; host or cells: human liver (tissue isolate)
Outline: as §1

[5] = molecular target: T5, cathepsin B isolated from human liver (Homo sapiens, UniProt P07858); assay: Cathepsin B kinetic fluorescence enzyme inhibition assay; conditions: selectivity ratio versus calpain I
T5 construct: cathepsin B—isolated from human liver; purchased Calbiochem 219362; host or cells: human liver (tissue isolate)
Description: as §2, §3

T2 sequence (P25774 115-331): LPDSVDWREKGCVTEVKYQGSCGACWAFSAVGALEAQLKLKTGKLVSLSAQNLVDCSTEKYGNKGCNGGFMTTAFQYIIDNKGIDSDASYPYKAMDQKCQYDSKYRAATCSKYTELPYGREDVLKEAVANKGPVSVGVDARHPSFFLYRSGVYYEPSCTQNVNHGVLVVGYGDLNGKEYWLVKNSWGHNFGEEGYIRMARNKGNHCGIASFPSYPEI
T4 sequence (P07711 114-333): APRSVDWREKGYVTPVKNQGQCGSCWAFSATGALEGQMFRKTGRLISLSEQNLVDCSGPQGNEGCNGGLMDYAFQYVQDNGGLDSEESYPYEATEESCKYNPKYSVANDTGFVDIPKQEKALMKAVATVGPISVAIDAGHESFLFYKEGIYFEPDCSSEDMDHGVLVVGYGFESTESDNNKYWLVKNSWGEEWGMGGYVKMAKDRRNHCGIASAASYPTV

Compound	pKi [1]	Sel cat. K (Ki(cathepsin K)/Ki(calpain) ratio) [3]	Sel cat. B (Ki(cathepsin B)/Ki(calpain) ratio) [5]	Sel cat. S (Ki(cathepsin S)/Ki(calpain) ratio) [2]	Sel cat. L (Ki(cathepsin L)/Ki(calpain) ratio) [4]
CN1CCN(c2ccc(-c3ccn(-c4ncccc4C(=O)NC(Cc4ccccc4)C(=O)C(N)=O)n3)cc2)CC1 (centres unmarked) [Example 68, N-(3-Amino-1-benzyl-2,3-dioxopropyl)-2-{3-[4-(4-methylpiperazin-1-yl)phenyl]-1H-pyrazol-1-yl}nicotinamide]	7.00 to 7.40	+ (10≦Ki(cathepsin K)/Ki(calpain)<30)	–	++ (Ki(cathepsin S)/Ki(calpain) ratio of ≧100)	–
NC(=O)C(=O)C(Cc1ccc(Br)cc1)NC(=O)c1cccnc1-n1ccc(-c2ccccc2)n1 (centres unmarked) [Example 122, N-{3-Amino-1-[(4-bromophenyl)methyl]-2,3-dioxopropyl}-2-(3-phenyl-1H-pyrazol-1-yl)pyridine-3-carboxamide]	≥ 7.40	–	++ (Ki(cathepsin B)/Ki(calpain) ratio of ≧30)	++ (Ki(cathepsin S)/Ki(calpain) ratio of ≧100)	++ (Ki(cathepsin L)/Ki(calpain) ratio of ≧50)
CC(C)c1ccc2c(c1)-c1nn(-c3ncccc3C(=O)NC(Cc3ccccc3)C(=O)C(N)=O)cc1CO2 (centres unmarked) [Example 144, N-[3-Amino-2,3-dioxo-1-(phenylmethyl)propyl]-2-[8-(1-methylethyl)chromeno[4,3-c]pyrazol-2(4H)-yl]pyridine-3-carboxamide]	≥ 7.40	–	+ (10≦Ki(cathepsin B)/Ki(calpain)<30)	++ (Ki(cathepsin S)/Ki(calpain) ratio of ≧100)	++ (Ki(cathepsin L)/Ki(calpain) ratio of ≧50)
N#Cc1cnc(-n2ccc(-c3ccccc3F)n2)c(C(=O)NC(Cc2ccccc2)C(=O)C(N)=O)c1 (centres unmarked) [Example 188, N-[3-Amino-2,3-dioxo-1-(phenylmethyl)propyl]-5-cyano-2-[3-(2-fluorophenyl)-1H-pyrazol-1-yl]pyridine-3-carboxamide]	7.00 to 7.40	++ (Ki(cathepsin K)/Ki(calpain) ratio of ≧30)	–	–	++ (Ki(cathepsin L)/Ki(calpain) ratio of ≧50)
N-{3-Amino-1-[(4-fluorophenyl)methyl]-2,3-dioxopropyl}-2-[3-(2,3-dichlorophenyl)-1H-pyrazol-1-yl]pyridine-3-carboxamide [Example 161]	–	–	+ (10≦Ki(cathepsin B)/Ki(calpain)<30)	++ (Ki(cathepsin S)/Ki(calpain) ratio of ≧100)	+ (30≦Ki(cathepsin L)/Ki(calpain)<50)

Continued, in another order:

pKi [1]	Sel cat. K (Ki(cathepsin K)/Ki(calpain) ratio) [3]	Sel cat. B (Ki(cathepsin B)/Ki(calpain) ratio) [5]	Compound	Sel cat. S (Ki(cathepsin S)/Ki(calpain) ratio) [2]	Sel cat. L (Ki(cathepsin L)/Ki(calpain) ratio) [4]
≥ 7.40	+ (10≦Ki(cathepsin K)/Ki(calpain)<30)	–	Cl.NC(=O)C(=O)C(Cc1ccccc1)NC(=O)c1cccnc1-n1ccc(-c2ccc(N3CCOCC3)cc2)n1 (centres unmarked) [Example 29, N-(3-Amino-1-benzyl-2,3-dioxopropyl)-2-[3-(4-morpholin-4-ylphenyl)-1H-pyrazol-1-yl]nicotinamide hydrochloride]	++ (Ki(cathepsin S)/Ki(calpain) ratio of ≧100)	++ (Ki(cathepsin L)/Ki(calpain) ratio of ≧50)
≥ 7.40	–	+ (10≦Ki(cathepsin B)/Ki(calpain)<30)	NC(=O)C(=O)C(Cc1cccs1)NC(=O)c1cccnc1-n1ccc(-c2ccccc2)n1 (centres unmarked) [Example 40, N-[3-Amino-2,3-dioxo-1-(2-thienylmethyl)propyl]-2-(3-phenyl-1H-pyrazol-1-yl)pyridine-3-carboxamide]	++ (Ki(cathepsin S)/Ki(calpain) ratio of ≧100)	++ (Ki(cathepsin L)/Ki(calpain) ratio of ≧50)
≥ 7.40	–	+ (10≦Ki(cathepsin B)/Ki(calpain)<30)	Cc1cn(-c2ncccc2C(=O)NC(Cc2ccccc2)C(=O)C(N)=O)nc1-c1ccccc1 (centres unmarked) [Example 84, N-(3-Amino-1-benzyl-2,3-dioxopropyl)-2-(4-methyl-3-phenyl-1H-pyrazol-1-yl)nicotinamide]	++ (Ki(cathepsin S)/Ki(calpain) ratio of ≧100)	++ (Ki(cathepsin L)/Ki(calpain) ratio of ≧50)
